Experimental data from PMC10800023 (Human Molecular Genetics, 2023).
“And” between values parts separate entries of the source, which are not always exact repeats. Equal entries are not always repeated. Where two headings read alike, the source gives them in different places. Marks after values point to notes of the source that are not given here.

Assays:
[1] = test system: STAT1; experiment: GRE-mediated STAT1 in cultured BMDM; assay type: cell-based, mouse; conditions: for EC50: Mus musculus, BMDM, corticosteroid overnight, LPS 10 ng/ml 3 h; for STAT1/IFN-γ Ratio: ratio of EC50 values
Description: The immunosuppressive activity of corticosteroids is in part due to their inhibition of NF-κB-induced cytokines including TNF-α, IL-6, and IL-12. Furthermore, expression of some inflammatory-mediated proteins such as STAT1 is mediated via GREs, and not the NF-κB pathway. We therefore expanded murine bone marrow-derived macrophages (BMDM) in vitro, and after 5 days of culture tested the relative efficacy of different corticosteroids to prevent LPS-induced cytokine secretion.
BMDM mouse bone marrow derived macrophage (mBMDM) cultures were generated from the femur and tibia from two 7–11-week-old C57BL/6 mice. Briefly, bone marrow cells were carefully flushed out, suspended in ice-cold PBS, and spun down. After the supernatant was removed, the pelleted cells were resuspended in 2 ml (ammonium-Chloride-Potassium) ACK lysis buffer (Thermo Fisher, Cat# A1049201) and incubated for 3–4 min, followed by 14 ml ice-cold PBS, and then spun down. The pelleted cells were resuspended in 43 ml complete media [Roswell Park Memorial Institute (RPMI 1640), Gibco, Cat# 11875-093; 10% heat-inactivated fetal bovine serum (HiFBS), HyClone, Cat# SH30406.02; 1% 2 mM L-glutamine; 1% penicillin-streptomycin, Sigma, Cat# P4333-100ML; 1% MEM NEAA, Gibco, Cat# 11140-050; 1% Na Pyruvate, Gibco, Cat# 11360-070; 55 μM 2-Mercaptoethanol, Gibco, Cat#21985-023]. A total of 25 ng/ml M-CSF was added to the culture. Cells were dispensed as 200 μl per well into a 96-well tissue culture plate and incubated at 37°C, 5% CO2 for 4 days. On Day 5, media were removed and 100 μl fresh complete media containing M-CSF were added. Corticosteroids were added and cells incubated at 37°C and 5% CO2 overnight. Untreated cells were incubated with media. On Day 6, 10 ng/ml of lipopolysaccharide (LPS) was added and incubated at 37°C and 5% CO2 for 3 h followed by removal of cell media for cytokine analysis. Cytokines were measured using a Meso Scale Discovery (MSD), V-PLEX kit (V-PLEX Cat# K-15048D, www.mesoscale.com).

[2] = test system: B10-mdx mice; experiment: Circulating lymphocytes and neutrophils (CBC) after 2 weeks (Study 1); assay type: in vivo, mouse
Procedure: It is understood that part of the efficacy of corticosteroids is via their impact on leukocyte trafficking, resulting in a decrease in lymphocyte and an increase in neutrophil counts in the blood within hours of drug administration. Corticostetoids regulate leukocyte trafficking via changes in adhesion molecules and cytokines, which likely reflects inhibition of NF-κB [39, 40]. The effect of the three corticosteroids on leukocyte trafficking was assessed in B10-mdx mice after 2 weeks of dosing (Study 1). No significant differences in neutrophil-to-lymphocyte ratio were seen between wildtype and B10-mdx mice (Fig. 6a).
Study 1: The goal of this study was to define the dose-response of each of the three corticosteroids. […] On Day 11, mice were fasted for 6 h and then blood was obtained to measure blood glucose. Blood glucose was measured using a glucometer (ACCU-CHECK) by tail bleeding. At the end of 14 days, mice were euthanized, and blood samples were evaluated for complete blood count (CBC) and plasma were collected for analysis of corticosterone levels, osteocalcin, creatine kinase, and cytokines. Brain, muscle, and liver were collected for RNAseq. The number of animals per group was as follows: WT, n = 15; B10-mdx, n = 11; corticosteroid-treated groups, n = 10–12.

[3] = test system: B10-mdx mice; experiment: Femur bone density by micro-CT (Study 2); assay type: in vivo, mouse; conditions: for bone density measured by microCT: 4 months of treatment
Procedure: To evaluate the similarities and differences of potential side effects of the three corticosteroids, plasma/blood were evaluated ex vivo for their effects on endogenous corticosteroid after 14 days of dosing (Study 1) and glucose levels (Study 1) after 11 days of dosing. Bone formation was measured by evaluating osteocalcin levels in Study 1 after 14 days. Bone density was measured by micro-computed tomography (micro-CT) in Study 2 after 4 months.
Study 2: The goal of the second study was to evaluate corticosteroid side effects and efficacy in a longer study (4 months). After 28 days of dosing, mice were tested for depression-like behavior using a measure of corticosteroid-induced depression (FST followed by TST). Muscle function was tested via grip strength. Tests for depression and for grip-strength were done in a blinded manner. After 4 months, mice were euthanized, and tissues were collected. Bone from whole left leg was collected for micro-CT analysis. The number of animals per group was as follows: WT, n = 16; B10-mdx, n = 15; corticosteroid-treated groups, n = 8–10.
Micro-CT analysis was performed by the Rutgers University Molecular Imaging Center (RUMIC). Briefly, skeletons were harvested at trial endpoint and stored in 70% ethanol and transferred for imaging analysis. Hindlimbs were soaked in isotonic saline solution overnight to rehydrate before imaging. […] The rotation step was 0.4° through 180° total rotation, and three images were averaged at each rotation step. Each distal femur was scanned separately, and images were saved. Scan images were reconstructed using Skyscan nRecon software.

[4] = test system: B10-mdx mice; experiment: Diaphragm hydroxyproline assay (Study 2); assay type: in vivo, mouse; conditions: 4 months
Procedure: To determine muscle damage in B10-mdx mice and to evaluate the effects of the three corticosteroids on muscle, we used the hydroxyproline assay to measure the collagen content in diaphragm muscle tissue, a measure of muscle damage and fibrosis. […] Levels were reduced in mice treated with any of the three corticosteroids (Fig. 6d).
Diaphragm muscles were dissected, weighed, and stored at −80°. Tissues were cut to avoid the tendon(s), and 10 ± 1 mg of tissue was homogenized through sonication. Water and hydrochloric acid (12 M) content were normalized prior to hydrolysis at 120° for 3 h in pressure-tight polypropylene vials. After boiling, the hydrolysates were centrifuged at 10 000 × g for 3 min, and 6-μl triplicates of the hydrolysate were added to clear 96-well plates for evaporation in a 60°C oven overnight. The following day, a hydroxyproline kit (Sigma, cat #MAK008) was used to determine the hydroxyproline content. In each sample and standard well, 100 μl Chloramine T/Oxidation buffer mixture was added, incubated for 5 min at room temperature, and followed with 100 μl of perchloric acid diluted DMAB concentrate. The plate was sealed and incubated in a 60°C oven for 90 min. The 96-well plates were read using a BioTek Epoch 2 Spectrophotometer at an absorbance of 560 nm.

[5] = cited from earlier work
[6] = test system: mineralocorticoid receptor; set-up: method as in PMID 30745312; conditions: cited from earlier work
[7] = human, 2 mg/kg, ref Conklin et al., Pharmacol Res. 2018
[8] = human, 6 mg/kg, ref Conklin et al., Pharmacol Res. 2018

Question: For C[C@]12C=CC(=O)C=C1CC[C@@H]1[C@@H]2[C@@H](O)C[C@@]2(C)[C@H]1CC[C@]2(O)C(=O)CO [Prednisolone], which EC50 [1] is on record?
Answer: 9.4 nM

Question: And the “% decrease in fraction of lymphocytes at Day 14 from mdx vehicle” value (“% decrease in fraction of lymphocytes” below) ([2]; 1.2 mg/kg PO daily)?
Answer: 17%**

Question: What about the “% increase in fraction of PMNs at Day 14” value ([2]; 1.2 mg/kg PO daily) of the same compound?
Answer: 64%**

Question: What about the “% decrease in fraction of lymphocytes” value ([2]; 2.4 mg/kg PO daily) of the same compound?
Answer: 18%**

Question: What about the “% increase in fraction of PMNs at Day 14” value ([2]; 2.4 mg/kg PO daily) of the same compound?
Answer: 81%***

Question: What about the “% decrease in fraction of lymphocytes” value ([2]; 5 mg/kg PO daily) of the same compound?
Answer: 21%***

Question: And the “% increase in fraction of PMNs at Day 14” value ([2]; 5 mg/kg PO daily)?
Answer: 92%****

Question: And the “bone density in the femur (micro-CT tissue mineral density)” value ([3]; 4 months, highest dose)?
Answer: significantly reduced bone density

Question: What about the “diaphragm hydroxyproline (fibrosis)” value ([4]; 5 mg/kg) of the same compound?
Answer: reduced fibrosis

Question: What about the “AUC (Day 1)” value ([5]; human adults, 0.35 mg/kg (20 mg/57 kg), AUC0-12, average of two formulations, ref Bashar et al., Dose Response 2018) of the same compound?
Answer: 3301 ng·h/mL

Question: And the Cmax ([5]; human adults, 0.35 mg/kg (20 mg/57 kg), average of two formulations, ref Bashar et al., Dose Response 2018)?
Answer: 659 ng/mL

Question: What about the “effect on mineralocorticoid receptor signaling” value [6] of the same compound?
Answer: agonist

Question: What does the source list for C[C@@H]1C[C@H]2[C@@H]3CCC4=CC(=O)C=C[C@]4(C)C3=CC[C@]2(C)[C@@]1(O)C(=O)CO [Vamorolone]?
Answer: EC50 [1]: 7.6 nM; STAT1/IFN-γ Ratio [1]: 10×; % decrease in fraction of lymphocytes at Day 14 from mdx vehicle ([2]; 15 mg/kg PO daily): (0.5%); % increase in fraction of PMNs at Day 14 ([2]; 15 mg/kg PO daily): 7%; % decrease in fraction of lymphocytes at Day 14 from mdx vehicle ([2]; 30 mg/kg PO daily): 5%; % increase in fraction of PMNs at Day 14 ([2]; 30 mg/kg PO daily): 27%; % decrease in fraction of lymphocytes at Day 14 from mdx vehicle ([2]; 45 mg/kg PO daily): 14%**; % increase in fraction of PMNs at Day 14 ([2]; 45 mg/kg PO daily): 70%**; bone density measured by microCT [3]: not reaching significance; diaphragm hydroxyproline (fibrosis) ([4]; 45 mg/kg): did not reach significance; diaphragm hydroxyproline (fibrosis) ([4]; 15 and 30 mg/kg): reduced fibrosis; AUC (Day 1) [5, 7]: 761 ng·h/mL; Cmax [5, 7]: 199 ng/mL; AUC (Day 1) [5, 8]: 3279 ng·h/mL; Cmax [5, 8]: 856 ng/mL; effect on mineralocorticoid receptor signaling [6]: antagonist

Question: With CC(=O)OCC(=O)[C@@]12N=C(C)O[C@@H]1C[C@H]1[C@@H]3CCC4=CC(=O)C=C[C@]4(C)[C@H]3[C@@H](O)C[C@@]12C [Deflazacort] as the compound, how does the EC50 [1] read?
Answer: 3.1 nM

Question: And the “STAT1/IFN-γ Ratio” value [1]?
Answer: 11×

Question: What about the “% decrease in fraction of lymphocytes” value ([2]; 1.25 mg/kg PO daily) of the same compound?
Answer: (1%)

Question: What about the “% increase in fraction of PMNs at Day 14” value ([2]; 1.25 mg/kg PO daily) of the same compound?
Answer: 3%

Question: And the “% decrease in fraction of lymphocytes” value ([2]; 2.5 mg/kg PO daily)?
Answer: 5%

Question: And the “% increase in fraction of PMNs at Day 14” value ([2]; 2.5 mg/kg PO daily)?
Answer: 32%*

Question: What about the “% decrease in fraction of lymphocytes” value ([2]; 5 mg/kg PO daily) of the same compound?
Answer: 9%*

Question: What about the “% increase in fraction of PMNs at Day 14” value ([2]; 5 mg/kg PO daily) of the same compound?
Answer: 41%*

Question: And the “% decrease in fraction of lymphocytes” value ([2]; 15 mg/kg PO daily)?
Answer: 19%****

Question: What about the “% increase in fraction of PMNs at Day 14” value ([2]; 15 mg/kg PO daily) of the same compound?
Answer: 82%****

Question: What about the “bone density measured by microCT” value [3] of the same compound?
Answer: not reaching significance

Question: What about the “diaphragm hydroxyproline (fibrosis)” value ([4]; 5 and 15 mg/kg) of the same compound?
Answer: reduced fibrosis

Question: What about the Cmax ([5]; human, 0.9 mg/kg, ref FDA 208684,208685Orig1s000ClinPharmR.pdf) of the same compound?
Answer: 329 ng/mL

Question: What about the “AUC (Day 1)” value ([5]; human, 0.9 mg/kg, ref FDA 208684,208685Orig1s000ClinPharmR.pdf, listed as Emflaza) of the same compound?
Answer: 567 ng·h/mL and 630 ng·h/mL

Question: And the “effect on mineralocorticoid receptor signaling” value [6]?
Answer: no effect
